The source of these data is patent US20230247997A1 (published 2023).

Broadly, the melting point is the temperature, or range, at which the solid turns liquid. With `CCSc1nc(-c2ccc([N+](=O)[O-])cc2)ns1`, the melting point lay in the range of 103 to 104 °C.

On to `CCSc1nc(-c2ccc(Br)cc2)ns1`, for which the melting point lay in the range of 36 to 37 °C.

With `COc1nc(-c2ccc(F)cc2)nc(-c2ccc(F)cc2)n1`, the melting point fell in the range of 173 to 174 °C.

The molecule `CCOC(=O)C=C1N=C(SCC)SN1` had a melting point of 128 to 129 °C.

The molecule `CCSc1nc(OC)ns1` gave a melting point of 35 to 37 °C.

`COc1nc(-c2ccccc2)nc(-c2ccccc2)n1` showed a melting point of 109 to 111 °C.

For the molecule `COc1nc(-c2ccc(Cl)cc2)nc(-c2ccc(Cl)cc2)n1`, the melting point lay within 192 to 194 °C.

`CCSc1nc(-c2cnccn2)ns1` returned a melting point of 60 to 62 °C.

For the molecule `CCSc1nc(N(C)C)ns1`, the melting point is 116 to 118 °C.

The molecule `CCSc1nc(-c2ccc(OC)cc2)ns1` displayed a melting point of 54 to 56 °C.

The molecule `COc1cccc(-c2nsc(OC)n2)c1` gave a melting point of 73 to 75 °C.

Molecule `CCSc1nc(-c2ccc(F)cc2)ns1` returned a melting point of 35 to 36 °C.

The molecule `CCSc1nc(-c2ccc(Cl)cc2)ns1` registered a melting point of 44 to 45 °C.

On to `CSc1nc(-c2ccc(Cl)cc2)ns1`, for which the melting point was 105 to 107 °C.

With `CCSC1=NC(=CC(N)=O)NS1`, the melting point lay in the range of 140 to 142 °C.

For the molecule `COc1nc(-c2ccc([N+](=O)[O-])cc2)ns1`, the melting point is 138 to 140 °C.

Turning to `CCSc1nc(-c2ccncc2)ns1`, the melting point was in the range of 49 to 50 °C.

With `COc1nc(-c2ccc(Cl)cc2)ns1`, the melting point was in the range of 137 to 139 °C.

`COc1cccc(-c2nc(OC)nc(-c3cccc(OC)c3)n2)c1` showed a melting point of 126 to 128 °C.
